Laboratory results from US10385055B2, “Tricyclic gyrase inhibitors” (Merck Sharp & Dohme Corp., priority 2013, dated 2019).
≈ marks a conversion by molar mass, not a printed value. Where “and” joins values, the source holds several entries; their conditions need not be identical. Equal entries are not always repeated.

Legend:
K. pneumoniae = assay: Anti-bacterial efficacy (MIC), K. pneumoniae; assay type: cell-based; details: for MIC Kpn: Table 2; for MIC: Klebsiella pneumoniae, Table 3
S. aureus = assay: Anti-bacterial efficacy (MIC), S. aureus; assay type: cell-based; details: for MIC Sa: Table 2; for MIC: Staphylococcus aureus, Table 3
hERG = molecular target: T1, hERG (Homo sapiens, UniProt Q12809); assay: hERG inhibition, Cerep automated patch-clamp assay in Chinese Hamster Ovary K1 cells; assay type: cell-based; details: CHO K1 cells, tail current, read-out: hREG IC50
T1 construct: host or cells: Chinese Hamster Ovary K1 cells
T1 sequence (Q12809 whole entry): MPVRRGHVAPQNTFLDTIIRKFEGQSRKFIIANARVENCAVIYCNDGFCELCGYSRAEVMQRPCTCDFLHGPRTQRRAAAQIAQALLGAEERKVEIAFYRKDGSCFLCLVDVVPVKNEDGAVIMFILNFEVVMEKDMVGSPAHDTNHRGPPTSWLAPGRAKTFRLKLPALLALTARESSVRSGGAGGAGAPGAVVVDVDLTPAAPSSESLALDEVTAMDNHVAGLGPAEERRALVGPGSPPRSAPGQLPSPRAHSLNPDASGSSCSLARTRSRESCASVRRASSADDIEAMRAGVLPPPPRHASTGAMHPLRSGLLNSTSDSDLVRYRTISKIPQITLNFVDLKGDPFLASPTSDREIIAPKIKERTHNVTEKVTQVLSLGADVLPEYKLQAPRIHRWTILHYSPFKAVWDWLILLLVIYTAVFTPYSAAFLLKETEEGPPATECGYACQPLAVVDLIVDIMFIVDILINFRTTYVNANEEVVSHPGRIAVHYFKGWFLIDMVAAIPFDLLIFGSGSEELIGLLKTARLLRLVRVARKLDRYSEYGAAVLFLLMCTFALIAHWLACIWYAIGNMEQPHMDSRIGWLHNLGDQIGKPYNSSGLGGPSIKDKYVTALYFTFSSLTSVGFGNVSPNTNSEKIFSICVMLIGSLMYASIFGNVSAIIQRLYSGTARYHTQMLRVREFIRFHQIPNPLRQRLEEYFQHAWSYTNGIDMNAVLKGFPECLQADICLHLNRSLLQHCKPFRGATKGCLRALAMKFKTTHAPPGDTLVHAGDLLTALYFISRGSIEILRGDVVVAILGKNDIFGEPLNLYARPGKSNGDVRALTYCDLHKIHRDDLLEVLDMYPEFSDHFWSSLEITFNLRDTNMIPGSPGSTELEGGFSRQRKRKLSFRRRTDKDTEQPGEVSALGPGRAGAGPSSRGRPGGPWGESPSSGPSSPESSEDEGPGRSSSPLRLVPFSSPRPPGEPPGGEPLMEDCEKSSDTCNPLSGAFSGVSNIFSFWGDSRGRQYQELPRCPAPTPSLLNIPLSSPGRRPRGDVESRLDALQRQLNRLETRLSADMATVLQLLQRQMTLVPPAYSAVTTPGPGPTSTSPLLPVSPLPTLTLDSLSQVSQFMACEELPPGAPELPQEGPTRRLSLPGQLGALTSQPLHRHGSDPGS
Procedure: A Cerep automated patch-clamp assay using Chinese Hamster Ovary K1 cells was used to measure hERG IC50 values. The degree of inhibition (%) was obtained by measuring the tail current amplitude, which is induced by a one second test pulse to −40 mV after a two second pulse to +20 mV, before and after drug incubation (the difference in current was normalized to control and multiplied by 100 to obtain the percent inhibition).
Concentration (log) response curves were fitted to a logistic equation (three parameters assuming complete block of the current at very high test compound concentrations) to generate estimates of the 50% inhibitory convcentration (IC50). The concentration-response relationship of each compound was constructed from the percentage reductions of current amplitude by sequential concentrations. The MIC and hERG IC50 values are provided in Table 2 below for the compounds tested.

E. coli = assay: Anti-bacterial efficacy (MIC), E. coli; assay type: cell-based; details: for MIC Ec: Table 2; for MIC: Escherichia coli, Table 3
P. aeruginosa = assay: Anti-bacterial efficacy (MIC), P. aeruginosa; assay type: cell-based; details: for MIC Pa: Table 2; for MIC: Pseudomonas aeruginosa, Table 3
A. baumannii = assay: Anti-bacterial efficacy (MIC), A. baumannii; assay type: cell-based; details: for MIC Ab: Table 2; for MIC: Acinetobacter baumannii, Table 3
[1] = In vivo mouse PK, oral bioavailability; details: plasma, AUC oral / AUC intravenous, read-out: Mouse % F
Procedure: Typical protocol is a single dose intravenous and oral (gavage) administration with blood collection from each animal by cardiac puncture at selected (6 to 8) time points (n=3 mice per time point) into a tube containing an appropriate anticoagulant. The blood is centrifuged and the resulting plasma removed for subsequent analysis. After proper sample preparation, the plasma concentrations of a test compound are determined by LC-MS/MS and the pharmacokinctics (namely, area-under-curve or AUC) of the concentration-time profile from oral administration is compared with the corresponding pharmacokinetics from intravenous administration. […] In addition, Caco values are shown.

Caco-2 cell monolayer = Caco-2 cell monolayer permeability; assay type: in vitro ADME, human; details: Caco-2 monolayer permeability
Excerpt: Oral bioavailability can be assessed by various methods such as measuring the Caco-2 cell monolayer permeability, and measuring pharmacokinetic properties by calculating the ratio of the AUC from oral administration to the AUC from intravenous administration. Both methods are used to assess compounds here as illustrated in Examples 8-9. In some aspects, compounds herein show the highest membrane (Caco-2 cell monolayer) permeability among all the compounds tested. The Caco-2 cell line is a continuous cell of heterogeneous human epithelial colorectal adenocarcinoma cells that when cultured under specific conditions the cells become differentiated and polarized such that their phenotype, morphologically and functionally, resembles the enterocytes lining the small intestine. Thus, the Caco-2 monolayer is widely used across the pharmaceutical industry as an in vitro model of the human small intestinal mucosa to predict the absorption of orally-administered drugs.
Caco-2 human colon carcinoma cell line (Caco-2) was used as a model system for intestinal epithelial permeability. There is similarity in uptake and barrier properties between this cell system and the small intestinal epithelial layer. See., Hidalgo I J, et al., Gastroenterology. 1989 March; 96(3):736-49. Characterization of the human colon carcinoma cell line (Caco-2) as a model system for intestinal epithelial permeability.

Dog oral bioavailability = details: in vivo, read-out: Dog % F

| Structure (SMILES) | MIC Kpn (K. pneumoniae) | MIC Sa (S. aureus) | IC50 (hERG) | MIC Ec (E. coli) | MIC Pa (P. aeruginosa) | MIC Ab (A. baumannii) | MIC (K. pneumoniae) | MIC (S. aureus) | MIC (E. coli) | MIC (P. aeruginosa) | bioavailability [1] | MIC (A. baumannii) | Caco (Caco-2 cell monolayer) | bioavailability (Dog oral bioavailability) |
| --- | --- | --- | --- | --- | --- | --- | --- | --- | --- | --- | --- | --- | --- | --- |
| CNc1cc(F)cc2c1[nH]c1nc(Oc3cnc(C)nc3)nc(N3CC4(CCC4N)C3)c12 (stereo not shown) | 2 µg/mL (≈ 4.6 µM) | ≤0.016 µg/mL | 16 µM | 0.25 µg/mL (≈ 0.575 µM) | 1 µg/mL (≈ 2.3 µM) | 0.5 µg/mL (≈ 1.15 µM) | – | – | – | – | – | – | – | – |
| CNc1cc(F)cc2c1[nH]c1nc(Oc3cnc(C)nc3)nc(N3CC4(CCC4O)C3)c12 (stereo not shown) | 4 µg/mL (≈ 9.19 µM) | ≤0.016 µg/mL | 100 µM | 1 µg/mL (≈ 2.3 µM) | >16 µg/mL | 4 µg/mL (≈ 9.19 µM) | – | – | – | – | – | – | – | – |
| CNc1cc(F)cc2c1[nH]c1nc(Oc3cnc(C)nc3)nc(N3CC4CC3CC4N)c12 (stereo not shown) | 2 µg/mL (≈ 4.6 µM) | ≤0.016 µg/mL | 4 µM | 0.13 µg/mL (≈ 0.299 µM) | 1 µg/mL (≈ 2.3 µM) | 0.5 µg/mL (≈ 1.15 µM) | – | – | – | – | – | – | – | – |
| CNc1cc(F)cc2c1[nH]c1nc(Oc3cnc(C)nc3)nc(N3CC4CC3CC4O)c12 (stereo not shown) | 8 µg/mL (≈ 18.4 µM) | ≤0.016 µg/mL | 71 µM | 1 µg/mL (≈ 2.3 µM) | >16 µg/mL | 4 µg/mL (≈ 9.19 µM) | – | – | – | – | – | – | – | – |
| CNc1cc(F)cc2c1[nH]c1nc(Oc3cnc(C)nc3)nc(N3CC4CC(N)C4C3)c12 (stereo not shown) | 2 µg/mL (≈ 4.6 µM) | ≤0.016 µg/mL | 1 µM | 0.25 µg/mL (≈ 0.575 µM) | 1 µg/mL (≈ 2.3 µM) | 0.25 µg/mL (≈ 0.575 µM) | – | – | – | – | – | – | – | – |
| CNc1cc(F)cc2c1[nH]c1nc(Oc3cnc(C)nc3)nc(N3CC4CC(O)C4C3)c12 (stereo not shown) | 1 µg/mL (≈ 2.3 µM) | ≤0.016 µg/mL | 20 µM | 0.13 µg/mL (≈ 0.299 µM) | 16 µg/mL (≈ 36.7 µM) | 0.5 µg/mL (≈ 1.15 µM) | – | – | – | – | – | – | – | – |
| CNc1cc(F)cc2c1[nH]c1nc(Oc3cnc(C)nc3)nc(N3CC4C(N)C4C3)c12 (stereo not shown) | 2 µg/mL (≈ 4.76 µM) | ≤0.016 µg/mL | 9.5 µM | 0.13 µg/mL (≈ 0.309 µM) | 4 µg/mL (≈ 9.51 µM) | 0.25 µg/mL (≈ 0.595 µM) | – | – | – | – | – | – | – | – |
| CNc1cc(F)cc2c1[nH]c1nc(Oc3cnc(C)nc3)nc(N3CC4C(O)C4C3)c12 (stereo not shown) | 1 µg/mL (≈ 2.37 µM) | ≤0.016 µg/mL | 41 µM | 0.25 µg/mL (≈ 0.593 µM) | >16 µg/mL | 0.5 µg/mL (≈ 1.19 µM) | – | – | – | – | – | – | – | – |
| CNc1cc(F)c(F)c2c1[nH]c1nc(Oc3cnc([C@H](C)O)nc3)nc(N3C[C@H]4CC3C[C@H]4N)c12 [1.1] | – | – | – | – | – | – | 1 µg/mL (≈ 2.07 µM) | ≤ 0.016 µg/mL | 0.25 µg/mL (≈ 0.518 µM) | 2 µg/mL (≈ 4.15 µM) | < 2% | 4 µg/mL (≈ 8.29 µM) | <0.1 10^−8 cm/s | – |
| CNc1cc(F)c(F)c2c1[nH]c1nc(Oc3cnc([C@H](C)O)nc3)nc(N3CC4(CCC4N)C3)c12 (stereo partly shown) [1.2] | – | – | – | – | – | – | 1 µg/mL (≈ 2.07 µM) | ≤ 0.016 µg/mL | 0.13 µg/mL (≈ 0.269 µM) | 1 µg/mL (≈ 2.07 µM) | < 2% | 2 µg/mL (≈ 4.15 µM) | – | – |
| CNc1cc(F)cc2c1[nH]c1nc(Oc3cnc(C)nc3)nc(N3C[C@H]4C[C@@H](O)[C@H]4C3)c12 [1.3] | – | – | – | – | – | – | 0.5 µg/mL (≈ 1.15 µM) | ≤ 0.016 µg/mL | 0.13 µg/mL (≈ 0.299 µM) | 16 µg/mL (≈ 36.7 µM) | 25% | 1 µg/mL (≈ 2.3 µM) | 5.5 10^−8 cm/s and 6.3 10^−8 cm/s | 50% |
| CNc1cc(F)cc2c1[nH]c1nc(Oc3cnc(C)nc3)nc(N3C[C@@H]4[C@@H](O)[C@@H]4C3)c12 [1.4] | – | – | – | – | – | – | 1 µg/mL (≈ 2.37 µM) | ≤ 0.016 µg/mL | 0.5 µg/mL (≈ 1.19 µM) | > 16 µg/mL | 15% | 2 µg/mL (≈ 4.75 µM) | 7.5 10^−8 cm/s | – |
